Tests used:
[1] = Photolysis of BODIPY prodrugs in solution, analysed by HPLC; format: physicochemical; settings: 690 nm, 100 mW/cm^2, 5 min, 0.1 equiv. Os(bptpy)2^2+, N2-saturated solution
Description: BODIPY photocage was conjugated with the free drug molecules to form photoactivable prodrugs with photolabile linkages, including ester and carbamate. The light illumination was performed with a NIR lamp, of which the parameters were 100 mW/cm^2, 690 nm for 5 min, in a N2-saturated solution containing 0.1 equiv. of Os(bptpy)2^2+ and 1 equiv. of prodrugs. […] In addition, the photocage was conjugated with drug molecules with amine groups to produce prodrugs with photolabile carbamate bonds.
The photolysis efficiency of BODIPY prodrugs were compared in different conditions, including different excitation wavelengths (690 nm or 530 nm), different ratios of Os(bptpy)2^2+, and different oxygen contents. […] The solvent was 88% methanol mixed by 10% dichloromethane and 2% acetone. For the N2-saturated groups, after dissolving the molecules, the solution was degassed with a vacuum pump for 10 min followed by gentle N2 blowing. After light irradiation, the resulted mixtures were refilled to 100 μL with methanol to avoid the error caused by solvent evaporation. The resulted solution was loaded onto the sampler and analyzed by high-performance liquid chromatography. An elution method was used to separate free drug, BODIPY photocage and prodrug on the C18 column.

[2] = Photoreaction quantum yields and cross sections (HPLC, Reinecke's salt actinometry); format: physicochemical; settings: λex 690 nm, 0.1 eq Os, N2; for Cross section Φpε(λex) / Cross section Φrε(λex): ε of Os(bptpy)2·2PF6 at 688 nm
Description: Quantum yields of the photoreactions (Φ) are defined as:
The number of reacted molecules (e.g., consumption of prodrugs or generation of free drugs) were determined by HPLC. The absorbed photon number was determined by Reinecke's salt actinometry at excitation wavelengths of 530 nm and 690 nm^35, 36. The power densities were 50 mW/cm^2 (530 nm) and 100 mW/cm^2 (690 nm).

Compound: CCCCN(C(=O)OCC1=C2C(C)=C(I)C(C)=[N+]2[B-](C)(C)n2c(C)c(I)c(C)c21)c1ccc(C(=O)OCCN(C)C)cc1 [BODIPY-TCI, BODIPY-tetracaine]
- photolytic yield (yield of free drug) [1]: 41.34±4.61%
- Quantum yield of drug release Φr [2]: 0.36 ± 0.04%
- Quantum yield of prodrug photolysis Φp [2]: 0.81 ± 0.06%
- Cross section Φpε(λex) [2]: 215.84 ± 15.71 M⁻¹ cm⁻¹
- Cross section Φrε(λex) [2]: 95.21 ± 10.62 M⁻¹ cm⁻¹

Compound: CC1=C(I)C(C)=[N+]2C1=C(COC(=O)C(C)c1ccc(CC(C)C)cc1)c1c(C)c(I)c(C)n1[B-]2(C)C (centres unmarked) [BODIPY-IBF, BODIPY-ibuprofen]
- photolytic yield (yield of free drug) [1]: 48.49±4.69%
- Quantum yield of drug release Φr [2]: 0.42 ± 0.04%
- Quantum yield of prodrug photolysis Φp [2]: 0.85 ± 0.04%
- Cross section Φpε(λex) [2]: 226.34 ± 10.96 M⁻¹ cm⁻¹
- Cross section Φrε(λex) [2]: 111.67 ± 10.81 M⁻¹ cm⁻¹

Compound: CC1=C(I)C(C)=[N+]2C1=C(COC(=O)Cc1cccc3c(=O)c4ccc(C)c(C)c4oc13)c1c(C)c(I)c(C)n1[B-]2(C)C [BODIPY-DMXAA, BODIPY-vadimezan]
- photolytic yield (yield of free drug) [1]: 82.52±7.22%
- prodrug decomposition [1]: completely consumed
- Quantum yield of drug release Φr [2]: 0.71 ± 0.06%
- Quantum yield of prodrug photolysis Φp [2]: 0.87 ± 0.01%
- Cross section Φpε(λex) [2]: 230.30 ± 1.43 M⁻¹ cm⁻¹
- Cross section Φrε(λex) [2]: 190.05 ± 16.63 M⁻¹ cm⁻¹

Compound: CC1=C(I)C(C)=[N+]2C1=C(COC(=O)/C=C/c1cccc(OCc3ccccc3)c1)c1c(C)c(I)c(C)n1[B-]2(C)C [BODIPY-BCA, BODIPY-benzyloxycinnamic acid]
- photolytic yield (yield of free drug) [1]: 87.12±3.17%
- Quantum yield of drug release Φr [2]: 0.75 ± 0.03%
- Quantum yield of prodrug photolysis Φp [2]: 0.80 ± 0.02%
- Cross section Φpε(λex) [2]: 213.33 ± 7.55 M⁻¹ cm⁻¹
- Cross section Φrε(λex) [2]: 200.64 ± 7.30 M⁻¹ cm⁻¹

Compound: CC1=C(I)C(C)=[N+]2C1=C(COC(=O)NCCc1ccc(O)c(O)c1)c1c(C)c(I)c(C)n1[B-]2(C)C [BODIPY-DPA, BODIPY-dopamine]
- photolytic yield (yield of free drug) [1]: 69.04±1.99%
- Quantum yield of drug release Φr [2]: 0.60 ± 0.02%
- Quantum yield of prodrug photolysis Φp [2]: 0.86 ± 0.01%
- Cross section Φpε(λex) [2]: 228.90 ± 3.59 M⁻¹ cm⁻¹
- Cross section Φrε(λex) [2]: 159.00 ± 4.58 M⁻¹ cm⁻¹

Compound: COc1ccc(CCNC(=O)OCC2=C3C(C)=C(I)C(C)=[N+]3[B-](C)(C)n3c(C)c(I)c(C)c32)cc1OC [BODIPY-HVA, BODIPY-homoveratrylamine]
- photolytic yield (yield of free drug) [1]: 74.17±3.97%
- Quantum yield of drug release Φr [2]: 0.64 ± 0.03%
- Quantum yield of prodrug photolysis Φp [2]: 0.85 ± 0.04%
- Cross section Φpε(λex) [2]: 224.98 ± 9.83 M⁻¹ cm⁻¹
- Cross section Φrε(λex) [2]: 170.82 ± 9.14 M⁻¹ cm⁻¹

Compound: CC1=C(I)C(C)=[N+]2C1=C(COC(=O)NCCc1ccc(O)cc1)c1c(C)c(I)c(C)n1[B-]2(C)C [BODIPY-TyrA, BODIPY-tyramine]
- photolytic yield (yield of free drug) [1]: 46.57±2.37%
- Quantum yield of drug release Φr [2]: 0.40 ± 0.02%
- Quantum yield of prodrug photolysis Φp [2]: 0.84 ± 0.02%
- Cross section Φpε(λex) [2]: 223.12 ± 6.28 M⁻¹ cm⁻¹
- Cross section Φrε(λex) [2]: 107.25 ± 5.46 M⁻¹ cm⁻¹

Compound: COc1ccc2c(c1)c(CC(=O)OCC1=C3C(C)=C(I)C(C)=[N+]3[B-](C)(C)n3c(C)c(I)c(C)c31)c(C)n2C(=O)c1ccc(Cl)cc1 [BODIPY-IDM, BODIPY-indomethacin]
- photolytic yield (yield of free drug) [1]: 68.95±4.69%
- Quantum yield of drug release Φr [2]: 0.60 ± 0.04%
- Quantum yield of prodrug photolysis Φp [2]: 0.86 ± 0.02%
- Cross section Φpε(λex) [2]: 229.15 ± 5.23 M⁻¹ cm⁻¹
- Cross section Φrε(λex) [2]: 158.79 ± 10.80 M⁻¹ cm⁻¹

Reference: US20250000979A1, “TRIPLET-TRIPLET ENERGY TRANSFER WITH LIGHT EXCITATION AT LONG WAVELENGTHS AND METHODS THEREOF” (priority 2023, published 2025)
